Our source for the FGFR1/FGFR3 and FGFR4/FGFR3 values is patent US10251892B2, “Bicyclic heterocycles as FGFR4 inhibitors” (Incyte Corporation, priority 2015, dated 2019).

FGFR3 enzyme, sequence (P22607 23-806): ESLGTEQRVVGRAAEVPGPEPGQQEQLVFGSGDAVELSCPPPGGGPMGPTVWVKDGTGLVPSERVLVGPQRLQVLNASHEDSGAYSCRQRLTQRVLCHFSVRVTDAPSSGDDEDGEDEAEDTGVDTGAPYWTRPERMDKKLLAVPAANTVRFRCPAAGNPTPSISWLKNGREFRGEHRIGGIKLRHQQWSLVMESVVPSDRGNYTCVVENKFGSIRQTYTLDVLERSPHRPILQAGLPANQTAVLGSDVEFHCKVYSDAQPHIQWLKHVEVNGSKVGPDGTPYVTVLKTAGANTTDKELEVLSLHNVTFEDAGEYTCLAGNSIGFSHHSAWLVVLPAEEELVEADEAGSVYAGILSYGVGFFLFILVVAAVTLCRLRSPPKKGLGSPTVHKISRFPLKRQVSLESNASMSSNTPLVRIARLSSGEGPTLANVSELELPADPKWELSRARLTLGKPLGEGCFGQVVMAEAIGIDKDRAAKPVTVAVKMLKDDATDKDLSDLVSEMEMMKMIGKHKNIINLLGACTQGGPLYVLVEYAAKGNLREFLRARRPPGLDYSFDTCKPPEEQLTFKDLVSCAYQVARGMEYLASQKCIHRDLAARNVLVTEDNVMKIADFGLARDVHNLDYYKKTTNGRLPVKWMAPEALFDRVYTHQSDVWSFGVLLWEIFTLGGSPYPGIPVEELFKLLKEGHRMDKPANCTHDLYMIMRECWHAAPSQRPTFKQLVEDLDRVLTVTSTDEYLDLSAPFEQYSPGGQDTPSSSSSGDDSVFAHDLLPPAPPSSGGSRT

The target in the assay is FGFR3 enzyme (Homo sapiens (Human), UniProt P22607). The assay can be described thus: FGFR Enzymatic Assay (peptide phosphorylation, FRET), FGFR3. Particulars: IC50 ratio showing FGFR3 selectivity; pre-incubated for 4 hours. It is filed as biochemical. The method, then:
The inhibitor potency of the exemplified compounds was measured in an enzyme assay that measures peptide phosphorylation using FRET measurements to detect product formation. Inhibitors were serially diluted in DMSO and a volume of 0.5 μL was transferred to the wells of a 384-well plate.
GraphPad prism3 was used to analyze the data.
In the case of `COc1cc(OC)c(F)c(N2Cc3cnc(-c4cn(C)nc4C)cc3N(c3ccc(S(C)(=O)=O)cc3)C2=O)c1F` [Example 98, 3-(2,6-difluoro-3,5-dimethoxyphenyl)-7-(1,3-dimethyl-1H-pyrazol-4-yl)-1-(4-(methylsulfonyl)phenyl)-3,4-dihydropyrido[4,3-d]pyrimidin-2(1H)-one], the FGFR1/FGFR3 is listed as greater than 5 and the FGFR4/FGFR3 is reported as greater than 10.

In the case of `COc1cc(OC)c(F)c(N2Cc3cnc(-c4cn(C)nc4C)cc3N(Cc3ccncn3)C2=O)c1F` [Example 65, 3-(2,6-difluoro-3,5-dimethoxyphenyl)-7-(1,3-dimethyl-1H-pyrazol-4-yl)-1-(pyrimidin-4-ylmethyl)-3,4-dihydropyrido[4,3-d]pyrimidin-2(1H)-one], the FGFR1/FGFR3 is greater than 5 and the FGFR4/FGFR3 is listed as greater than 10.

With `COc1cc(OC)c(F)c(N2Cc3cnc(-c4cn(C)nc4C)cc3N(c3ccc(C#N)cc3)C2=O)c1F` [Example 44, 4-(3-(2,6-difluoro-3,5-dimethoxyphenyl)-7-(1,3-dimethyl-1H-pyrazol-4-yl)-2-oxo-3,4-dihydropyrido[4,3-d]pyrimidin-1(2H)-yl)benzonitrile], the FGFR1/FGFR3 is given as greater than 10 and the FGFR4/FGFR3 was greater than 10.

As for `COc1cc(OC)c(F)c(N2Cc3cnc(-c4cnn(C5CCN(S(C)(=O)=O)C5)c4)cc3C3(CC3)C2=O)c1F` (stereo not drawn) [Example 147, 2′-(2,6-difluoro-3,5-dimethoxyphenyl)-6′-(1-(1-(methylsulfonyl)pyrrolidin-3-yl)-1H-pyrazol-4-yl)-1′H-spiro[cyclopropane-1,4′-[2,7]naphthyridin]-3′(2′H)-one], the FGFR1/FGFR3 was greater than 10 and the FGFR4/FGFR3 was greater than 3.

In the case of `COc1cc(OC)c(F)c(N2Cc3cnc(-c4cn(C)nc4C)cc3N(Cc3ccncc3)C2=O)c1F` [Example 69, 3-(2,6-difluoro-3,5-dimethoxyphenyl)-7-(1,3-dimethyl-1H-pyrazol-4-yl)-1-(pyridin-4-ylmethyl)-3,4-dihydropyrido[4,3-d]pyrimidin-2(1H)-one], the FGFR1/FGFR3 is reported as greater than 5 and the FGFR4/FGFR3 is given as greater than 5.

Turning to `COc1cc(OC)c(F)c(N2Cc3cnc(-c4cn(C5CCN(CC#N)C5)nc4C)cc3C3(CC3)C2=O)c1F` (stereo not drawn) [Example 154, 2-(3-(4-(2′-(2,6-difluoro-3,5-dimethoxyphenyl)-3′-oxo-2′,3′-dihydro-1′H-spiro[cyclopropane-1,4′-[2,7]naphthyridine]-6′-yl)-3-methyl-1H-pyrazol-1-yl)pyrrolidin-1-yl)acetonitrile], the FGFR1/FGFR3 is recorded as greater than 5 and the FGFR4/FGFR3 is recorded as greater than 3.

For the compound `COc1cc(OC)c(F)c(N2Cc3cnc(-c4cn(C)nc4C)cc3N(Cc3ccccn3)C2=O)c1F` [Example 94, 3-(2,6-difluoro-3,5-dimethoxyphenyl)-7-(1,3-dimethyl-1H-pyrazol-4-yl)-1-(pyridin-2-ylmethyl)-3,4-dihydropyrido[4,3-d]pyrimidin-2(1H)-one], the FGFR1/FGFR3 is recorded as greater than 5 and the FGFR4/FGFR3 is reported as greater than 10.

On to `COc1cc(OC)c(F)c(N2Cc3cnc(-c4cn(C)nc4C)cc3N(Cc3cc(C)on3)C2=O)c1F` [Example 31, 3-(2,6-difluoro-3,5-dimethoxyphenyl)-7-(1,3-dimethyl-1H-pyrazol-4-yl)-1-((5-methylisoxazol-3-yl)methyl)-3,4-dihydropyrido[4,3-d]pyrimidin-2(1H)-one], for which the FGFR1/FGFR3 is given as greater than 5 and the FGFR4/FGFR3 is greater than 10.

Consider `COc1cc(OC)c(F)c(N2Cc3cnc(-c4cn(C)nc4C)cc3N(C3CCN(C(C)=O)CC3)C2=O)c1F` [Example 43, 1-(1-acetylpiperidin-4-yl)-3-(2,6-difluoro-3,5-dimethoxyphenyl)-7-(1,3-dimethyl-1H-pyrazol-4-yl)-3,4-dihydropyrido[4,3-d]pyrimidin-2(1H)-one], for which the FGFR1/FGFR3 is greater than 10 and the FGFR4/FGFR3 was greater than 5.
